Legend:
[1] = target: T1, HCV polymerase (NS5B) type 1b (Hepatitis C virus genotype 1b, UniProt P26663); assay: Assay of enzyme (HCV polymerase) inhibitory activity, type 1b enzyme; format: biochemical, HCV BK strain (type 1b)
T1 construct: a region encoding NS5B (J Virol 1991 March, 65(3), 1105-13, 544 amino acids after deletion of 47 amino acids on the C-terminal); 6xHis (C); made in house; host or cells: Escherichia coli
In short: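 NS5B from HCV BK strain (type 1b), C-terminal 47 aa deleted, C-terminal His6-tagged, E. coli-expressed, 0.5 μg/ml, with ~450 nt substrate RNA carrying the 3′ UTR (polyU, 3′X) at 5 μg/ml. Incubation 60 min at 25 °C with 50 μM ATP/GTP/CTP, 2 μM UTP plus [3H]UTP, pH 7.5 Tris.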

[2] = target: T2, HCV polymerase (NS5B) type 1a (Hepatitis C virus genotype 1a, UniProt P26664); assay: Assay of enzyme (HCV polymerase) inhibitory activity, type 1a enzyme; format: biochemical, HCV type 1a (cloned from the blood of patients)
T2 construct: made in house; host or cells: Escherichia coli (by the 'similar method' of the 1b enzyme)
In short: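 Patient-derived type 1a NS5B (C-terminal 47-aa deletion, His-tagged, E. coli-expressed) at 1.5 μg/ml was reacted with 5 μg/ml 3′UTR-containing substrate RNA, 50 μM ATP/GTP/CTP, 2 μM UTP plus [3H]UTP, pH 7.5, 25° C for 60 min. TCA-precipitated RNA radioactivity was counted; IC50 from ± compound.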

[3] = HCV polymerase inhibitory activity (IC50), 1b, type 1b enzyme 0.5 μg/ml, 25° C., 60 min
[4] = HCV polymerase inhibitory activity (IC50), 1a, type 1a enzyme 1.5 μg/ml, 25° C., 60 min
[5] = HCV polymerase inhibitory activity IC50, 1b, type 1b enzyme
[6] = HCV polymerase inhibitory activity IC50, 1a, type 1a enzyme

SMILES	IC50 [1, 3]	IC50 [2, 4]	IC50 [1, 5]	IC50 [2, 6]
CC(=O)N1CCN(S(=O)(=O)c2ccc(Cl)cc2)C(C(=O)NCc2ccc(C(F)(F)F)cc2)C1 (stereo not shown) [Example 20, 4-acetyl-1-(4-chloro-benzenesulfonyl)-piperazine-2-carboxylic acid 4-trifluoromethyl-benzylamide]	> 1000 nM	> 1000 nM	–	–
CNC(=O)c1sc(N2CCN(S(=O)(=O)c3ccc(OC(F)(F)F)cc3)[C@@H](C(=O)NCc3ccc(C(C)C)cc3)C2)nc1C [Example 354, (R)-4-(4-methyl-5-methylcarbamoyl-thiazol-2-yl)-1-(4-trifluoromethoxy-benzenesulfonyl)-piperazine-2-carboxylic acid 4-isopropyl-benzylamide]	< 100 nM	< 100 nM	–	–
CCC(F)(F)c1ccc(CNC(=O)[C@H]2CN(c3cnc4cncnc4n3)CCN2S(=O)(=O)c2ccc([N+](=O)[O-])cc2)cc1 [Example 698, (R)-1-(4-nitro-benzenesulfonyl)-4-pteridin-7-yl-piperazine-2-carboxylic acid 4-(1,1-difluoro-propyl)-benzylamide]	–	–	< 100 nM	< 100 nM
CC(C)(C)c1ccc(CNC(=O)[C@H]2CN(c3nc4nn[nH]c(=O)c4s3)CCN2S(=O)(=O)c2ccc(OC(F)(F)F)cc2)cc1 [Example 618, (R)-4-(4-oxo-3,4-dihydro-thiazolo[4,5-d][1,2,3]triazin-6-yl)-1-(4-trifluoromethoxy-benzenesulfonyl)-piperazine-2-carboxylic acid 4-tert-butyl-benzylamide]	< 100 nM	< 100 nM	–	–
CNC(=O)c1cc(=O)nc2sc(N3CCN(S(=O)(=O)c4ccc(OC(F)(F)F)cc4)[C@@H](C(=O)NCc4ccc(OC(F)(F)F)cc4)C3)nn12 [Example 990, 7-oxo-2-[(R)-4-(4-trifluoromethoxy-benzenesulfonyl)-3-(4-trifluoromethoxy-benzylcarbamoyl)-piperazin-1-yl]-7H-[1,3,4]thiadiazolo[3,2-a]pyrimidine-5-carboxylic acid methylamide]	–	–	< 100 nM	< 100 nM
CC(C)c1ccc(CNC(=O)[C@H]2CN(C(=O)Cc3ccccc3)CCN2S(=O)(=O)c2ccc(C(F)(F)F)cc2)cc1 [Example 172, (R)-4-phenylacetyl-1-(4-trifluoromethyl-benzenesulfonyl)-piperazine-2-carboxylic acid 4-isopropyl-benzylamide]	100 to 1000 nM	> 1000 nM	–	–
O=C(NCc1ccc(OC(F)(F)F)cc1)[C@H]1CN(c2nc3ccc(=O)[nH]c3s2)CCN1S(=O)(=O)c1ccc(OC(F)(F)F)cc1 [Example 1062, (R)-4-(5-oxo-4,5-dihydro-thiazolo[5,4-b]pyridin-2-yl)-1-(4-trifluoromethoxy-benzenesulfonyl)-piperazine-2-carboxylic acid 4-trifluoromethoxy-benzylamide]	–	–	< 100 nM	< 100 nM
O=C(NCc1ccc(OC(F)(F)F)cc1)[C@H]1CN(c2ccc3nccnc3c2)CCN1S(=O)(=O)c1ccc(OC(F)(F)F)cc1 [Example 782, (R)-4-quinoxalin-6-yl-1-(4-trifluoromethoxy-benzenesulfonyl)-piperazine-2-carboxylic acid 4-trifluoromethoxy-benzylamide]	–	–	< 100 nM	< 100 nM
CC(=O)N1CCN(S(=O)(=O)c2cccc(Br)c2)C(C(=O)NCc2ccc(C(F)(F)F)cc2)C1 (stereo not shown) [Example 165, 4-acetyl-1-(3-bromo-benzenesulfonyl)-piperazine-2-carboxylic acid 4-trifluoromethyl-benzylamide]	> 1000 nM	> 1000 nM	–	–
O=C(NCc1ccc(OC(F)(F)F)cc1)[C@H]1CN(c2nc3nc(C4CC4)ncc3s2)CCN1S(=O)(=O)c1ccc(OC(F)(F)C(F)F)cc1 [Example 1020, (R)-4-(5-cyclopropyl-thiazolo[4,5-d]pyrimidin-2-yl)-1-[4-(1,1,2,2-tetrafluoro-ethoxy)-benzenesulfonyl]-piperazine-2-carboxylic acid 4-trifluoromethoxy-benzylamide]	–	–	< 100 nM	< 100 nM
CC(=O)N1CCN(S(=O)(=O)c2ccc(S(=O)(=O)c3ccccc3)s2)C(C(=O)NCc2ccc(C(F)(F)F)cc2)C1 (stereo not shown) [Example 47, 4-acetyl-1-(5-benzenesulfonyl-thiophene-2-sulfonyl)-piperazine-2-carboxylic acid 4-trifluoromethyl-benzylamide]	> 1000 nM	> 1000 nM	–	–
O=C(NCc1ccc(OC(F)(F)F)cc1)[C@H]1CN(c2nc3nnncc3s2)CCN1S(=O)(=O)c1ccc(OC(F)(F)F)cc1 [Example 987, (R)-4-thiazolo[4,5-d][1,2,3]triazin-6-yl-1-(4-trifluoromethoxy-benzenesulfonyl)-piperazine-2-carboxylic acid 4-trifluoromethoxy-benzylamide]	–	–	< 100 nM	< 100 nM
CCC(F)(F)c1ccc(CNC(=O)[C@H]2CN(C(=O)Cc3ccncc3)CCN2S(=O)(=O)c2ccc(OC(F)(F)F)cc2)cc1 [Example 508, (R)-4-(2-pyridin-4-yl-acetyl)-1-(4-trifluoromethoxy-benzenesulfonyl)-piperazine-2-carboxylic acid 4-(1,1-difluoro-propyl)-benzylamide]	< 100 nM	< 100 nM	–	–
O=C(NCc1ccc(C2CC2)cc1)[C@H]1CN(c2cnc3cncnc3n2)CCN1S(=O)(=O)c1ccc(OC(F)(F)F)cc1 [Example 656, (R)-4-pteridin-7-yl-1-(4-trifluoromethoxy-benzenesulfonyl)-piperazine-2-carboxylic acid 4-cyclopropyl-benzylamide]	< 100 nM	< 100 nM	–	–
COC(=O)CCC(=O)NCC(=O)N1CCN(S(=O)(=O)c2ccc(C(F)(F)F)cc2)[C@@H](C(=O)NCc2ccc(C(C)C)cc2)C1 [Example 252, N-{2-[(R)-3-(4-isopropyl-benzylcarbamoyl)-4-(4-trifluoromethyl-benzenesulfonyl)-piperazin-1-yl]-2-oxo-ethyl}-succinamic acid methyl ester]	100 to 1000 nM	100 to 1000 nM	–	–
CCC(F)(F)c1ccc(CNC(=O)[C@H]2CN(c3nc(C)c(C(=O)O)s3)CCN2S(=O)(=O)c2ccc(OC(F)(F)F)cc2)cc1 [Example 448, 2-[(R)-3-[4-(1,1-difluoro-propyl)-benzylcarbamoyl]-4-(4-trifluoromethoxy-benzenesulfonyl)-piperazin-1-yl]-4-methyl-thiazole-5-carboxylic acid]	< 100 nM	< 100 nM	–	–
COc1nsc(N2CCN(S(=O)(=O)c3ccc(OC(F)(F)F)cc3)[C@@H](C(=O)NCc3ccc(C(C)(C)C)cc3)C2)n1 [Example 606, (R)-4-(3-methoxy-[1,2,4]thiadiazol-5-yl)-1-(4-trifluoromethoxy-benzenesulfonyl)-piperazine-2-carboxylic acid 4-tert-butyl-benzylamide]	< 100 nM	< 100 nM	–	–
CC(C)c1ccc(CNC(=O)[C@H]2CN(c3nccn3C)CCN2S(=O)(=O)c2ccc(C(F)(F)F)cc2)cc1 [Example 352, (R)-4-(1-methyl-1H-imidazol-2-yl)-1-(4-trifluoromethyl-benzenesulfonyl)-piperazine-2-carboxylic acid 4-isopropyl-benzylamide]	100 to 1000 nM	> 1000 nM	–	–
CCCc1ccc(CNC(=O)[C@H]2CN(c3nc(C)c(CN4CCCC4)s3)CCN2S(=O)(=O)c2ccc(OC(F)(F)F)cc2)cc1 [Example 531, (R)-4-(4-methyl-5-pyrrolidin-1-ylmethyl-thiazol-2-yl)-1-(4-trifluoromethoxy-benzenesulfonyl)-piperazine-2-carboxylic acid 4-propyl-benzylamide]	< 100 nM	< 100 nM	–	–
CCC(F)(F)c1ccc(CNC(=O)[C@H]2CN(c3cnc4cncnc4n3)CCN2S(=O)(=O)c2ccc(-c3cccc(C(=O)O)c3)cc2)cc1 [Example 753, 4′-{(R)-2-[4-(1,1-difluoro-propyl)-benzylcarbamoyl]-4-pteridin-7-yl-piperazine-1-sulfonyl}-biphenyl-3-carboxylic acid]	–	–	< 100 nM	< 100 nM
O=C(NCc1ccc(-c2cccs2)s1)[C@H]1CN(c2cnc3cncnc3n2)CCN1S(=O)(=O)c1ccc(OC(F)(F)F)cc1 [Example 659, (R)-4-pteridin-7-yl-1-(4-trifluoromethoxy-benzenesulfonyl)-piperazine-2-carboxylic acid ([2,2′]bithiophenyl-5-ylmethyl)-amide]	< 100 nM	< 100 nM	–	–
CCCc1ccc(CNC(=O)[C@H]2CN(c3cnc4cncc(C(=O)O)c4n3)CCN2S(=O)(=O)c2ccc(C(C)(C)C)cc2)cc1 [Example 844, 2-[(R)-4-(4-tert-butyl-benzenesulfonyl)-3-(4-propyl-benzylcarbamoyl)-piperazin-1-yl]-pyrido[3,4-b]pyrazine-8-carboxylic acid]	–	–	< 100 nM	< 100 nM
CCc1ccc(S(=O)(=O)N2CCN(c3cnc(C(=O)O)cn3)C[C@@H]2C(=O)NCc2ccc(C(C)(C)C)cc2)cc1 [Example 524, (R)-3-(4-tert-butyl-benzylcarbamoyl)-4-(4-ethyl-benzenesulfonyl)-3,4,5,6-tetrahydro-2H-[1,2′]bipyrazinyl-5′-carboxylic acid]	< 100 nM	< 100 nM	–	–
